According to ChEMBL document CHEMBL1149774, “Synthesis of N-(5,7-diamino-3-phenyl-quinoxalin-2-yl)-3,4,5-substituted anilines and N-[4[(5,7-diamino-3-phenylquinoxalin-2-yl)amino]benzoyl]-l-glutamic acid diethyl ester: evaluation of in vitro anti-cancer and anti-folate activities” (Eur J Med Chem, 2008):

Assays:
Assay type in all cases: functional
DU-145 = assay: Growth inhibition of human DU145 cells after 48 hrs by SRB staining method; conditions: DU-145, 48 h
786-0 = assay: Growth inhibition of human 786-0 cells after 48 hrs by SRB staining method; conditions: 786-0, 48 h
HCT-15 = assay: Growth inhibition of human HCT15 cells after 48 hrs by SRB staining method; conditions: HCT-15, 48 h
SF-295 = assay: Growth inhibition of human SF295 cells after 48 hrs by SRB staining method; conditions: SF-295, 48 h
SK-MEL-28 = assay: Growth inhibition of human SK-MEL-28 cells after 48 hrs by SRB staining method; conditions: SK-MEL-28, 48 h
T47D = assay: Growth inhibition of human T47D cells after 48 hrs by SRB staining method
TK-10 = assay: Growth inhibition of human TK10 cells after 48 hrs by SRB staining method; conditions: TK-10, 48 h
M14 = assay: Growth inhibition of human M14 cells after 48 hrs by SRB staining method; conditions: M14, 48 h
UACC-257 = assay: Growth inhibition of human UACC257 cells after 48 hrs by SRB staining method; conditions: UACC-257, 48 h
COLO 205 = assay: Growth inhibition of human COLO205 cells after 48 hrs by SRB staining method; conditions: COLO 205, 48 h
HCT-116 = assay: Growth inhibition of human HCT116 cells after 48 hrs by SRB staining method; conditions: HCT-116, 48 h
OVCAR-4 = assay: Growth inhibition of human OVCAR4 cells after 48 hrs by SRB staining method; conditions: OVCAR-4, 48 h
MCF7 = assay: Growth inhibition of human MCF7 cells after 48 hrs by SRB staining method; conditions: MCF7, 48 h
HL-60 = assay: Growth inhibition of human HL60 cells after 48 hrs by SRB staining method; conditions: HL-60, 48 h
NCI-H522 = assay: Growth inhibition of human NCI-H522 cells after 48 hrs by SRB staining method; conditions: NCI-H522, 48 h
Malme-3M = assay: Growth inhibition of human MALME-3M cells after 48 hrs by SRB staining method
RXF 393 = assay: Growth inhibition of human RXF393 cells after 48 hrs by SRB staining method; conditions: RXF 393, 48 h
SK-MEL-5 = assay: Growth inhibition of human SK-MEL-5 cells after 48 hrs by SRB staining method; conditions: SK-MEL-5, 48 h
CAKI-1 = assay: Growth inhibition of human CAKI1 cells after 48 hrs by SRB staining method; conditions: CAKI-1, 48 h
MDA-MB-435 = assay: Growth inhibition of human MDA-MB-435 cells after 48 hrs by SRB staining method; conditions: MDA-MB-435, 48 h
NCI-H226 = assay: Growth inhibition of human NCI-H226 cells after 48 hrs by SRB staining method; conditions: NCI-H226, 48 h
OVCAR-3 = assay: Growth inhibition of human OVCAR-3 cells after 48 hrs by SRB staining method; conditions: OVCAR-3, 48 h
U-251 = assay: Growth inhibition of human U251 cells after 48 hrs by SRB staining method; conditions: U-251, 48 h
OVCAR-5 = assay: Growth inhibition of human OVCAR5 cells after 48 hrs by SRB staining method; conditions: OVCAR-5, 48 h
NCI-H322M = assay: Growth inhibition of human NCI-H322M cells after 48 hrs by SRB staining method
SK-OV-3 = assay: Growth inhibition of human SKOV3 cells after 48 hrs by SRB staining method; conditions: SK-OV-3, 48 h
SW-620 = assay: Growth inhibition of human SW620 cells after 48 hrs by SRB staining method; conditions: SW-620, 48 h
HOP-62 = assay: Growth inhibition of human HOP62 cells after 48 hrs by SRB staining method; conditions: HOP-62, 48 h
SR = assay: Growth inhibition of human SR cells after 48 hrs by SRB staining method
EKVX = assay: Growth inhibition of human EKVX cells after 48 hrs by SRB staining method
NCI-H460 = assay: Growth inhibition of human NCI-H460 cells after 48 hrs by SRB staining method; conditions: NCI-H460, 48 h
UO-31 = assay: Growth inhibition of human UO31 cells after 48 hrs by SRB staining method; conditions: UO-31, 48 h
A498 = assay: Growth inhibition of human A498 cells after 48 hrs by SRB staining method; conditions: A498, 48 h
[1] = read-out: pLC50 (the source's name) (converted)

## COc1ccc(Nc2nc3cc(N)cc(N)c3nc2-c2ccccc2)cc1
DU-145
  GI50: 38.9 µM
DU-145; [1]
  CC50: > 100 µM
DU-145; read-out: pTGI (converted)
  TGI: > 100 µM
786-0
  GI50: 15.8 µM
786-0; [1]
  CC50: 60.3 µM
786-0; read-out: pTGI (converted)
  TGI: 30.9 µM
HCT-15
  GI50: 15.1 µM
  LC50: > 100 µM
HCT-15; read-out: pTGI (converted)
  TGI: 44.7 µM
SF-295
  GI50: 31.6 µM
  LC50: > 100 µM
SF-295; read-out: pTGI (converted)
  TGI: > 100 µM
SK-MEL-28
  GI50: 17 µM
SK-MEL-28; [1]
  CC50: 55 µM
SK-MEL-28; read-out: pTGI (converted)
  TGI: 30.2 µM
T47D
  GI50: 17.8 µM
T47D; [1]
  CC50: > 100 µM
T47D; read-out: pTGI (converted)
  TGI: 53.7 µM
TK-10
  GI50: 16.6 µM
TK-10; [1]
  CC50: > 100 µM
TK-10; read-out: pTGI (converted)
  TGI: 42.7 µM
M14
  GI50: 17.8 µM
  LC50: 75.9 µM
M14; read-out: pTGI (converted)
  TGI: 36.3 µM
UACC-257
  GI50: 15.1 µM
  LC50: 52.5 µM
UACC-257; read-out: pTGI (converted)
  TGI: 27.5 µM
COLO 205
  GI50: 15.8 µM
  LC50: 53.7 µM
COLO 205; read-out: pTGI (converted)
  TGI: 29.5 µM
HCT-116
  GI50: 14.8 µM
  LC50: 52.5 µM
HCT-116; read-out: pTGI (converted)
  TGI: 28.2 µM
OVCAR-4
  GI50: 10.5 µM
  LC50: 46.8 µM
OVCAR-4; read-out: pTGI (converted)
  TGI: 21.9 µM
MCF7
  GI50: 14.8 µM
MCF7; [1]
  CC50: 52.5 µM
MCF7; read-out: pTGI (converted)
  TGI: 28.2 µM
HL-60
  GI50: 34.7 µM
HL-60; [1]
  CC50: > 100 µM
HL-60; read-out: pTGI (converted)
  TGI: > 100 µM
NCI-H522
  GI50: 14.8 µM
  LC50: 52.5 µM
NCI-H522; read-out: pTGI (converted)
  TGI: 28.2 µM
Malme-3M
  GI50: 15.1 µM
  LC50: 53.7 µM
Malme-3M; read-out: pTGI (converted)
  TGI: 28.2 µM
RXF 393
  GI50: 11 µM
RXF 393; [1]
  CC50: 53.7 µM
RXF 393; read-out: pTGI (converted)
  TGI: 24 µM
SK-MEL-5
  GI50: 15.1 µM
  LC50: 53.7 µM
SK-MEL-5; read-out: pTGI (converted)
  TGI: 28.8 µM
CAKI-1
  GI50: 35.5 µM
CAKI-1; [1]
  CC50: > 100 µM
CAKI-1; read-out: pTGI (converted)
  TGI: > 100 µM
MDA-MB-435
  GI50: 16.6 µM
MDA-MB-435; [1]
  CC50: 55 µM
MDA-MB-435; read-out: pTGI (converted)
  TGI: 30.2 µM
NCI-H226
  GI50: 24 µM
  LC50: > 100 µM
NCI-H226; read-out: pTGI (converted)
  TGI: 97.7 µM
OVCAR-3
  GI50: 17.4 µM
  LC50: 79.4 µM
OVCAR-3; read-out: pTGI (converted)
  TGI: 37.2 µM
U-251
  GI50: 16.2 µM
  LC50 (50% lethal concentration): 55 µM
U-251; read-out: pTGI (converted)
  TGI: 29.5 µM
OVCAR-5
  GI50: 21.4 µM
  LC50: > 100 µM
OVCAR-5; read-out: pTGI (converted)
  TGI: 53.7 µM
NCI-H322M
  GI50: 23.4 µM
  LC50: > 100 µM
NCI-H322M; read-out: pTGI (converted)
  TGI: 83.2 µM
SK-OV-3
  GI50: 33.1 µM
SK-OV-3; [1]
  CC50: > 100 µM
SK-OV-3; read-out: pTGI (converted)
  TGI: 97.7 µM
SW-620
  GI50: 22.4 µM
SW-620; [1]
  CC50: 60.3 µM
SW-620; read-out: pTGI (converted)
  TGI: 37.2 µM
HOP-62
  GI50: 27.5 µM
  LC50: > 100 µM
HOP-62; read-out: pTGI (converted)
  TGI: > 100 µM
SR
  GI50: 19.1 µM
SR; [1]
  CC50: > 100 µM
SR; read-out: pTGI (converted)
  TGI: > 100 µM
EKVX
  GI50: 25.7 µM
EKVX; [1]
  CC50: > 100 µM
EKVX; read-out: pTGI (converted)
  TGI: > 100 µM
NCI-H460
  GI50: 26.9 µM
  LC50 (concentration killing 50% of cells): > 100 µM
NCI-H460; read-out: pTGI (converted)
  TGI: 89.1 µM
UO-31
  GI50: 16.6 µM
UO-31; [1]
  CC50: 70.8 µM
UO-31; read-out: pTGI (converted)
  TGI: 33.9 µM
A498; [1]
  CC50: > 100 µM
A498; read-out: pTGI (converted)
  TGI: > 100 µM
